Data: patent US20010055590A1, “Method for enhancing myoblast migration and invasion in the context of gene therapy” (priority 1999, published 2001)

Key:
Type in all cases: cell-based
[1] = tested on: human myoblasts; test: In vitro human myoblast migration assay; settings: 12 hour time point
Procedure: Mouse myoblasts were previously isolated from hind limb muscles of 4-6 week old severe combined immunodeficient (SCID) mice and clonally purified from contaminating fibroblasts (Yao et al. “Primary myoblast-mediated gene: transfer: persistent expression of human factor IX in mice” Gene Therapy 1:99-107, 1994). Myoblasts (approximately 1×10^6 cells) were plated on 6 cm tissue culture plates coated with 0.5% gelatin (Sigma, St. Louis, Mo.) and grown in growth medium consisting of Dulbecco's Modified Eagle Medium (DMEM) (Gibco BRL, Gaithersburg Md.) supplemented with 20% fetal bovine serum (FBS; Gibco) and 0.5% chick embryo extract (CEE; Gibco). All animal studies were carried out following the institutional guidelines for ethical animal use. Human myoblasts were isolated using trypsin digestion from abdominal wall or chest wall muscle biopsies, and surgery. Written consent was obtained from all patients prior to biopsy isolation as approved by the University Hospital's Institutional Regulation Board on the use of human subjects. Cells were preplated on uncoated plates for 1 hour to separate muscle fibroblasts. Approximately 95% of the cells were desmin-positive following immunohistochemical staining of representative culture samples, and were capable of differentiation into myotubes, indicating high purity of the myoblast preparation. All experiments were done with myoblasts of passage 7 or lower. Myoblast migration and invasion were examined using a commercially available in vitro cell migration and invasion assay kit (Biocoat, Becton Dickinson, Franklin Lakes, N.J.) as described by Albini et al. (A rapid in vitro assay for quantitating the invasive potential of tumor cells Cancer Res 47:3239-3245, 1987). Myoblasts were grown to approximately 70% confluence, rinsed three times in serum-free DMEM, followed by incubation for 3 hours in 0.2% bovine serum albumin (BSA) in DMEM to eliminate the effects of serum. Cells were then trypsinized and collected by centrifugation. Cells were resuspended in serum-free DMEM at a density of 1×10^5 cells/ml, and 0.5 ml aliquots of cell suspension were added to the top chamber. […] Fibronectin subfragments of 45 KDa (Sigma), 120 kDa (Gibco), 63 kDa (Retronectin, Takara) and 70 KDa (Sigma) were used alone or in combination. The growth factor concentrations used were those which could produce maximal effects as examined in the present studies by extending from values reported by Bischoff (“Chemotaxis of skeletal muscle satellite cells” Devel. Dynamics 208:505-515, 1997). For migration studies, the upper chamber membrane was coated with 0.1% gelatin and cells were allowed to migrate for 8-12 hours, while for invasion studies, the upper membrane was coated with 5 μl of Matrigel® diluted to 5 mg/ml in sterile phosphate buffered saline (PBS) and cells were allowed to invade for 24 hours. The top side of the insert membrane was scrubbed free of cells using a cotton swab and the bottom side was stained using the Leukostat-I system (Fisher Diagnostics, Pittsburgh, Pa.). The number of cells per field was counted in 10 randomly selected fields and averaged for each condition. To evaluate the effects of inactivation or activation of MMPs, aliquots (0.05 units in 50 μl PBS) of purified human plasmin (Sigma) or 50 mM N-acetyl cysteine (NAC; Sigma) were added with the cells to the top chamber of the migration assay and growth factor was added to the bottom. […] The effects of growth factors on human myoblast migration in vitro (12 hour time point) were somewhat different from those observed with mouse myoblasts. […] The greatly elevated level of migration of human myoblasts was due in part to the extremely low migration in the BSA control (basal level) of human cells compared to mouse cells. The largest effects on human myoblast migration were produced by fibronectin (100-fold), PDGF (about 62-fold), TGF-β (about 54-fold) and HGF (46-fold) over the control level, while bFGF produced only a 37-fold stimulation (FIG. 7a). […]

[2] = tested on: mouse myoblasts; test: In vitro mouse myoblast migration assay (gelatin-coated membrane); settings: 12 hours; for stimulation of mouse myoblast migration over the DMEM control: 25 ng/ml bFGF, 50 μg/ml fibronectin, 10 ng/ml HGF, 2 ng/ml TGF-β1; for effect on mouse myoblast migration: stimulant in bottom chamber
Procedure: Mouse myoblasts were previously isolated from hind limb muscles of 4-6 week old severe combined immunodeficient (SCID) mice and clonally purified from contaminating fibroblasts (Yao et al. “Primary myoblast-mediated gene: transfer: persistent expression of human factor IX in mice” Gene Therapy 1:99-107, 1994). Myoblasts (approximately 1×10^6 cells) were plated on 6 cm tissue culture plates coated with 0.5% gelatin (Sigma, St. Louis, Mo.) and grown in growth medium consisting of Dulbecco's Modified Eagle Medium (DMEM) (Gibco BRL, Gaithersburg Md.) supplemented with 20% fetal bovine serum (FBS; Gibco) and 0.5% chick embryo extract (CEE; Gibco). All animal studies were carried out following the institutional guidelines for ethical animal use. Human myoblasts were isolated using trypsin digestion from abdominal wall or chest wall muscle biopsies, and surgery. Written consent was obtained from all patients prior to biopsy isolation as approved by the University Hospital's Institutional Regulation Board on the use of human subjects. Cells were preplated on uncoated plates for 1 hour to separate muscle fibroblasts. […] All experiments were done with myoblasts of passage 7 or lower. Myoblast migration and invasion were examined using a commercially available in vitro cell migration and invasion assay kit (Biocoat, Becton Dickinson, Franklin Lakes, N.J.) as described by Albini et al. (A rapid in vitro assay for quantitating the invasive potential of tumor cells Cancer Res 47:3239-3245, 1987). Myoblasts were grown to approximately 70% confluence, rinsed three times in serum-free DMEM, followed by incubation for 3 hours in 0.2% bovine serum albumin (BSA) in DMEM to eliminate the effects of serum. Cells were then trypsinized and collected by centrifugation. Cells were resuspended in serum-free DMEM at a density of 1×10^5 cells/ml, and 0.5 ml aliquots of cell suspension were added to the top chamber. […] Fibronectin subfragments of 45 KDa (Sigma), 120 kDa (Gibco), 63 kDa (Retronectin, Takara) and 70 KDa (Sigma) were used alone or in combination. […] For migration studies, the upper chamber membrane was coated with 0.1% gelatin and cells were allowed to migrate for 8-12 hours, while for invasion studies, the upper membrane was coated with 5 μl of Matrigel® diluted to 5 mg/ml in sterile phosphate buffered saline (PBS) and cells were allowed to invade for 24 hours. The top side of the insert membrane was scrubbed free of cells using a cotton swab and the bottom side was stained using the Leukostat-I system (Fisher Diagnostics, Pittsburgh, Pa.). The number of cells per field was counted in 10 randomly selected fields and averaged for each condition. To evaluate the effects of inactivation or activation of MMPs, aliquots (0.05 units in 50 μl PBS) of purified human plasmin (Sigma) or 50 mM N-acetyl cysteine (NAC; Sigma) were added with the cells to the top chamber of the migration assay and growth factor was added to the bottom. […] Myoblasts (5×10^4 cells/well) were stimulated with various growth factors and fibronectin, and their ability to migrate or invade through a Matrigel® barrier (panel a, mouse myoblast migration at 12 hours; panel b, mouse myoblast invasion at 24 hours). […] Bars represent mean ±SEM from a minimum of 3 separate experiments. […] Further studies were done to elucidate the role of MMPs in cytokine-mediated mouse myoblast migration.

[3] = tested on: MMP-2; test: Gelatin zymography of mouse myoblast culture medium, MMP-2; settings: mouse myoblasts treated 24 hours; densitometry normalized to DMEM control
Procedure: Briefly, myoblasts were grown in 6 cm tissue culture plates to approximately 70% confluence, then rinsed three times with serumfree DMEM and incubated for 3 hours in DMEM containing 0.2% BSA to eliminate the effects of serum. Growth factors were added and cells were incubated for 24 hours. Culture medium was then collected, centrifuged to pellet detached cells, and concentrated ten-to twenty-fold using the Centricon-10 (Amicon, Beverly, Mass.) system. The protein concentration of the supernatants was determined using the Bio-Rad protein microassay system with BSA used as the standard. Samples were stored at −70° C. until use. For gelatin zymography, aliquots (10 μg as the total protein per sample) were electrophoresed at constant voltage on a 10% polyacrylamide gel containing 2 mg/ml gelatin. The gel was rinsed three times for 15 min in 2.5% Triton-X 100 to remove SDS and renature the proteins, then incubated in MMP activation buffer (0.05 M Tris-HCl, pH 7.5 with 5 mM CaCl2) for 24 hours at 37° C. with constant shaking. Gels were stained overnight in 0.5% Coomassie blue R-250, and destained for 1 hour in 40% methanol: 10% acetic acid. Proteinase activity was quantified by densitometric scanning of bands using a Bio-Rad Gel Doc 1000 video camera imaging system (Bio Rad, Hercules, Calif.). […] Values are arbitrary densitometric units, which are normalized to DMEM control for each experiment and shown as values ±SEM representing a minimum of 3 experiments per condition. […] Mouse myoblasts were treated for 24 hours with either DMEM alone, fibronectin (50 μg/ml), or individual fragments (37.5 μg/ml) of 45, 120, 63 (Retronectin), 75 kDa and their combinations, 45 kDa/120 kDa and 120 kDa/63 kDa.

purified human transforrning growth factor-β1 [TGF-β1]
stimulation of human myoblast migration over the BSA control level [1]: about 54 fold | stimulation of mouse myoblast migration over the DMEM control [2]: 5 fold | effect on mouse myoblast migration [2]: stimulated migration of mouse myoblasts to various degrees | increase of total MMP-2 expression [3]: 36%

recombinant human insulin-like growth factor-I [IGF-I]
effect on mouse myoblast migration [2]: stimulated migration of mouse myoblasts to various degrees | increase of total MMP-2 expression [3]: 69%

recombinant hepatocyte growth factor [HGF]
stimulation of human myoblast migration over the BSA control level [1]: 46 fold | stimulation of mouse myoblast migration over the DMEM control [2]: 8 fold | effect on mouse myoblast migration [2]: stimulated migration of mouse myoblasts to various degrees

B1: recombinant human platelet-derived growth factor-BB (protein, UniProt P01127 82-190, looked up)
Platelet-derived growth …: SLGSLTIAEPAMIAECKTRTEVFEISRRLIDRTNANFLVWPPCVEVQRCSGCCNNRNVQCRPTQVQLRPVQVRKIEIVRKKPIFKKATVTLEDHLACKCETVAAARPVT
modifications: Platelet-derived growth factor subunit B
notes: recombinant human platelet-derived growth factor-BB
stimulation of human myoblast migration over the BSA control level [1]: about 62 fold | effect on mouse myoblast migration [2]: stimulated migration of mouse myoblasts to various degrees | increase of total MMP-2 expression [3]: 35%
